Data published in PMC12041881, “Tailored phenyl ureas eradicate drug-resistant Mycobacterium tuberculosis by targeting mycolic acid cell wall assembly” (Chemical Science, 2025).

Legend:
[1] = system: 227-resistant mutants of M. tuberculosis H37rv; type: cell-based
M. tuberculosis H37Rv = type: cell-based
[2] = system: MmpL3 over- (+ATc) expressing Mtb H37Rv; type: cell-based, M. tuberculosis

O=C(Nc1ccc(Cl)c(C(F)(F)F)c1)NC1CCCCC1 [Compound 227]
IC50 [1]: 3.3 µM | estimated frequency of resistance (M. tuberculosis H37Rv): 1.5 × 10^−7

CC[C@@H](CO)NCCN[C@@H](CC)CO [Ethambutol]
susceptibility shift in MmpL3 over-expressing strain [2]: no significant shifts
